# Read-outs that look alike come from different tables or passages of the source.
# Legend:
# Test in all cases: Post-emergence efficacy (glasshouse, spray application)
# Assay type in all cases: in vivo
# Setaria faberi (SETFA) = conditions: 312 h, read-out: Control of weed species after post-emergence application, SETFA
# Method: (§1) Seeds of a variety of test species were sown in standard soil in pots. After cultivation for 14 days (post-emergence) under controlled conditions in a glasshouse (at 24/16° C., day/night; 14 hours light; 65 humidity), the plants were sprayed with an aqueous spray solution derived from the dissolution of the technical active ingredient formula (I) in a small amount of acetone and a special solvent and emulsifier mixture referred to as IF50 (11.12% Emulsogen EL360 TM+44.44% N-methylpyrrolidone+44.44% Dowanol DPM glycol ether), to create a 50 g/l solution which was then diluted to required concentration using a solution of 0.25% or 1% Empicol ESC70 (Sodium lauryl ether sulphate)+1% ammonium sulphate in water as diluent.
# (§2) The test plants were then grown in a glasshouse under controlled conditions (at 24/16° C., day/night; 14 hours light; 65% humidity) and watered twice daily. After 13 days the test was evaluated (100=total damage to plant; 0=no damage to plant).
# (§3) Ipomoea hederacea (IPOHE), Euphorbia heterophylla (EPHHL), Chenopodium album (CHEAL), Amaranthus palmeri (AMAPA), Lolium perenne (LOLPE), Digitaria sanguinalis (DIGSA), Eleusine indica (ELEIN), Echinochloa crus-galli (ECHCG), Setaria faberi (SETFA)
# [1] = test system: Amaranthus palmeri (AMAPA); conditions: 312 h, read-out: Control of weed species after post-emergence application, AMAPA
# Method: as §1, §2, §3
# [2] = test system: Echinochloa crus-galli (ECHCG); conditions: 312 h, read-out: Control of weed species after post-emergence application, ECHCG
# Method: as §1, §2, §3
# [3] = test system: Chenopodium album (CHEAL); conditions: 312 h, read-out: Control of weed species after post-emergence application, CHEAL
# Method: as §1, §2, §3
# [4] = test system: Ipomoea hederacea (IPOHE); conditions: 312 h, read-out: Control of weed species after post-emergence application, IPOHE
# Method: as §1, §2, §3
# Lolium perenne (LOLPE) = conditions: 312 h, read-out: Control of weed species after post-emergence application, LOLPE
# Method: as §1, §2, §3
# Eleusine indica (ELEIN) = conditions: 312 h, read-out: Control of weed species after post-emergence application, ELEIN
# Method: as §1, §2, §3
# [5] = test system: Euphorbia heterophylla (EPHHL); conditions: 312 h, read-out: Control of weed species after post-emergence application, EPHHL
# Method: as §1, §2, §3
# [6] = test system: Digitaria sanguinalis (DIGSA); conditions: 312 h, read-out: Control of weed species after post-emergence application, DIGSA
# Method: as §1, §2, §3
# [7] = Application rate 500 g/Ha, evaluated after 13 days, 100=total damage to plant, 0=no damage to plant
Structure (SMILES),pest or weed control at 500 g/ha (Setaria faberi (SETFA); [7]) [%],"pest or weed control at 500 g/ha [1, 7] [%]","pest or weed control at 500 g/ha [2, 7] [%]","pest or weed control at 500 g/ha [3, 7] [%]","pest or weed control at 500 g/ha [4, 7] [%]",pest or weed control at 500 g/ha (Lolium perenne (LOLPE); [7]) [%],pest or weed control at 500 g/ha (Eleusine indica (ELEIN); [7]) [%],"pest or weed control at 500 g/ha [5, 7] [%]","pest or weed control at 500 g/ha [6, 7] [%]",pest or weed control at 500 g/ha (Setaria faberi (SETFA)) [%],pest or weed control at 500 g/ha [1] [%],pest or weed control at 500 g/ha [2] [%],pest or weed control at 500 g/ha [3] [%],pest or weed control at 500 g/ha [4] [%],pest or weed control at 500 g/ha (Lolium perenne (LOLPE)) [%],pest or weed control at 500 g/ha (Eleusine indica (ELEIN)) [%],pest or weed control at 500 g/ha [5] [%],pest or weed control at 500 g/ha [6] [%]
O=C(C[n+]1ccc(-c2ncccn2)cn1)NC(C(=O)O)c1ccccc1 (centres unmarked) [Compound A13],70,100,80,50,40,30,90,50,100,,,,,,,,,
O=C(O)CNC(=O)C[n+]1ccc(-c2ccncc2)cn1 [Compound A20],70,100,60,90,70,30,60,90,70,,,,,,,,,
CC(C)(NC(=O)CC[n+]1ccc(-c2ncccn2)cn1)C(=O)O [Compound A32],80,100,70,100,30,60,80,80,80,,,,,,,,,
"O=C(O)CNC(=O)C[n+]1ccc(-c2ncccn2)cn1 [Compound A1, 2-[[2-(4-pyrimidin-2-ylpyridazin-1-ium-1-yl)acetyl]amino]acetic acid 2,2,2-trifluoroacetate]",,,,,,,,,,60,100,70,100,100,70,90,90,90
CCC(NC(=O)C[n+]1ccc(-c2ncccn2)cn1)C(=O)O (centres unmarked) [Compound A2],40,100,90,90,100,40,70,100,80,,,,,,,,,
CCC(C)C(NC(=O)C[n+]1ccc(-c2ncccn2)cn1)C(=O)O (centres unmarked) [Compound A5],10,100,30,100,60,0,10,100,10,,,,,,,,,
O=C(O)CNC(=O)C[n+]1ccc(-c2cnccn2)cn1 [Compound A35],60,70,50,40,20,0,60,40,100,,,,,,,,,
"OCCOCC[n+]1ccc(-c2ncccn2)cn1 [Compound A17, 2-[2-(4-pyrimidin-2-ylpyridazin-1-ium-1-yl)ethoxy]ethanol 2,2,2-trifluoroacetate]",20,30,30,50,0,10,20,30,,,,,,,,,,

# From US20220104492A1, “PYRIDAZINIUM COMPOUNDS FOR USE IN A METHOD OF CONTROLLING UNWANTED PLANT GROWTH” (SYNGENTA CROP PROTECTION AG, priority 2019, published 2022)
